Key:
Type in all cases: physicochemical
[1] = 0.1M Zinc Gluconate and 0.1M Amino Acid Solutions: pH and precipitation on adjusting pH to 7.0; settings: for pH: 0.1M zinc gluconate and 0.1M amino acid solution, before adjustment; for Observations: 0.1M zinc gluconate and 0.1M amino acid, pH adjusted to 7.0 with NaOH
Text: There are seven standard amino acids with uncharged polar R groups which can hydrogen-bond with water. […] The basic amino acids, in which the R groups have a net positive charge at pH 7.0, all have six carbon atoms. […] Histidine is the only amino acid having buffering capacity near pH 7.0 with a pK′ of the R group near 7.0. All of the basic amino acids as shown in the following table are suitable for use in the present invention: […]

[2] = pH of 2M amino acid and 1M zinc gluconate solution in water (Example 11); settings: 2M amino acid and 1M zinc gluconate dissolved in water, before neutralization
Description: A formulation in powder form containing zinc and lysine which when dissolved in water forms a neutral solution was prepared as follows: Two M lysine and 1M zinc gluconate was dissolved in water to form a solution having a pH 7.4 and was neutralized to pH 7 with HCl. After the zinc and amino solution was neutralized, it was frozen immediately in liquid nitrogen. The frozen solution was then lyophilized for 24 hours to remove water.

[3] = pH of Zinc Solutions
Text: Other minerals which may be administered in the subject form include calcium, iron, magnesium, manganese and the like.

| acidity of zinc gluconate neutralized by adding the amino acid and adjusting the pH to 7.0 [1] | pH [1] | Observations [1] | Compound | other results |
| --- | --- | --- | --- | --- |
| can be neutralized | 5.1 | – | C[C@H](N)C(=O)O [Alanine] | – |
| can be neutralized | 4.8 | – | NC(=O)C[C@H](N)C(=O)O [Asparagine] | – |
| cannot be made | – | precipitates | N[C@@H](CS)C(=O)O [Cysteine] | – |
| can be neutralized | 5.0 | – | NC(=O)CC[C@H](N)C(=O)O [Glutamine] | – |
| can be neutralized | – | – | N[C@@H](Cc1c[nH]cn1)C(=O)O [Histidine] | pH of solution [2]: 5.5 |
| can be neutralized | 5.1 | – | CC[C@H](C)[C@H](N)C(=O)O [Isoleucine] | – |
| – | 4.9 | precipitates | N[C@@H](Cc1ccccc1)C(=O)O [Phenylalanine] | – |
| can be neutralized | – | does not precipitate | N[C@@H](CO)C(=O)O [Serine] | – |
| can be neutralized | – | does not precipitate | C[C@@H](O)[C@H](N)C(=O)O [Threonine] | – |
| can be neutralized | 5.1 | – | CC(C)[C@H](N)C(=O)O [Valine] | – |
| – | – | – | CC(=O)[O-].CC(=O)[O-].[Zn+2] [Zinc acetate] | pH ([3]; 0.1M solution): 6.7; pH ([3]; 0.2M solution): 6.6 |
| – | – | – | [Cl-].[Cl-].[Zn+2] [Zinc chloride] | pH ([3]; 0.1M solution): 6.4; pH ([3]; 0.2M solution): 6.2 |
| – | – | – | O=S(=O)([O-])[O-].[Zn+2] [Zinc sulfate] | pH ([3]; 0.1M solution): 5.7; pH ([3]; 0.2M solution): 5.45 |
| – | – | – | Zinc gluconate | neutralization with sodium hydroxide ([1]; zinc salt alone, without amino acid): cannot be neutralized with sodium hydroxide without precipitating the mixture; pH ([3]; 0.1M solution): 5.85; pH ([3]; 0.2M solution): 5.65 |

| Compound | acidity of zinc gluconate neutralized by adding the amino acid and adjusting the pH to 7.0 [1] | pH [1] | Observations [1] | other results |
| --- | --- | --- | --- | --- |
| CC(C)C[C@H](N)C(=O)O [Leucine] | – | 5.0 | pH adjusted to 7.0 with NaOH precipitates | – |
| NCCCC[C@H](N)C(=O)O [Lysine] | can be neutralized | 7.4 | – | pH of solution [2]: 7.4 |
| CSCC[C@H](N)C(=O)O [Methionine] | – | – | pH adjusted to 7.0 with NaOH precipitates | – |
| N[C@@H](Cc1c[nH]c2ccccc12)C(=O)O [Tryptophan] | – | – | Not soluble | – |

From patent US20220378747A1, “TOPICAL COMPOSITION FOR TREATING SKIN WOUNDS” (priority 2021, published 2022)
